Reference: patent US20220395500A1, “SMALL MOLECULE ACTIVATORS OF INTERFERON REGULATORY FACTOR 3 AND METHODS OF USE THEREOF” (Neuralexo, Inc., priority 2020, published 2022)
Read-outs that look alike come from different tables or passages of the source.

How the values were obtained:
[1] = system: IRF-Lucia luciferase reporter (ISRE) in THP1-Dual cells; assay: THP1-Dual IRF-Lucia luciferase reporter assay (ISRE activation); type: cell-based, human; conditions: for EC50: read-out: THP1 IRF EC50; for IRF3 and NF-κB reporter activity: human THP1 and mouse J774 macrophage-like cells
In short: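 Supernatant luminescence from the ISG54/ISRE-driven Lucia reporter was measured after 24 h exposure to 10 μM compound (LPS 313 ng/mL in control wells).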

[2] = system: NF-κB-SEAP reporter in J774-Dual cells; assay: J774-Dual NF-κB-SEAP reporter assay; type: cell-based, mouse; conditions: read-out: J774 NFkB EC50
Experimental: First, optimal assay conditions and assay quality in 384-well format were determined. As mentioned, the mouse macrophage J774 cell line (J774-Dual, InvivoGen) stably transfected with the same inducible reporters described above (e.g., IRF-Lucia luciferase and NF-κB-SEAP) was used. The responsiveness of the J774-Dual cell line was investigated in an array of assay conditions to obtain sensitive and reproducible results for the activation of the IRF and NF-κB reporters. An optimal plating density and conditions for these cells was established for these cells in a 384-well format. Assay work-flow is similar to that discussed above for the THP1-Dual assay without a need for cell differentiation. Thus, cells are seeded directly in growth medium and incubated at 37° C. in a 5% C02 incubator for 24 hours prior to the programmed treatments being added as described herein.
The primary high throughput screen used the HTS platform of human THP1 monocyte cells containing the IRF-Lucia luciferase and NFκB-SEAP (secreted embryonic alkaline phosphatase) dual reporter (THP1-Dual, Invivogen), enabling the simultaneous study of the IRF and NFκB signaling pathways respectively. As discussed, the Lucia luciferase reporter gene is under the control of an ISG54 (interferon-stimulated gene) minimal promoter in conjunction with five interferon-stimulated response elements (ISRE). The SEAP gene is driven by an IFNβ minimal promoter fused to five copies of the NFκB consensus transcriptional response element and three copies of the c-Rel binding site. Both IRF-Lucia luciferase and NFκB-SEAP reporter proteins are secreted and readily measurable in the cell culture supernatant when using QUANTI-Luc™ and QUANTI-Blue™ detection reagents, respectively. Identified “hits” were confirmed in a secondary screen with an 8-point dose response curve. Hits were further screened for activity in the mouse using the mouse J774 macrophage-like cell line containing the identical reporter constructs (J774-Dual, Invivogen).
The OTRADI Small Molecule Library of approximately 246,000 diverse compounds (see below for description) was screened using the THP1-Dual based HTS platform described above. All transfer steps in the screen are fully automated, thus reducing variability. Primary screening included a single data point or dose for each molecule. After data normalization was applied for each assay run, “hit” selection was performed on the plates that pass the quality control (QC) criterion. Hits were defined as samples having values above the activity cutoff determined based on noise level of the assay to reduce false positive rates. In the pilot study discussed above this activity value was >3σ above the ISRE mean with the added criteria of NFκB activation being lower than […] from the mean to identify IRF selective compounds. The ratio of ISRE:NFκB activity was also calculated as a selectivity index for prioritizing hit selection. Primary hits underwent secondary screening to determine the 50% effective concentration (EC50) and 50% cytotoxic concentration (CC50) of these agents using an 8-point dose-response curve in the human THP1-Dual cells. Cytotoxicity was measured in the plate using Cell Titer Glo (Promega). Identified candidate compounds were further screened (orthogonal screen) for cross species activity in the validated mouse J774-Dual assay using an 8-point dose-response format to determine EC50 and CC50 values as well as ISRE:NFκB ratios. A general process flow for the experimental design laid out above is depicted at FIG. 12.

[3] = Mus musculus, J774, Mouse Reporter Cell Line, 8-point dose response
[4] = Homo sapiens, THP1-Dual, Human Reporter Cell Line, 8-point dose response
[5] = Mus musculus, J774, Mouse Reporter Cell Line J774
[6] = Homo sapiens, THP1-Dual, Human Reporter Cell Line THP1

SMILES | EC50 [1, 4] [µM] | EC50 [1, 6] [µM] | other results
Cc1ccc2c(=O)c3cccc(CC(=O)O)c3oc2c1C [DMXAA, 5,6-dimethylxanthenone-4-acetic acid] | – | – | ISRE activation in THP1-Dual cell line ([1]; THP1-Dual): not effective
O=C(Nc1ccc(N2CCN(C(=O)c3cccs3)CC2)cc1)c1ccc(Cl)c2ccccc12 [NA13] | ~1.55 | – | EC50 [2, 3]: ~2.86 µM
CCOc1cccc(COc2ccc(C(=O)Nc3ccc(N4CCN(C(=O)c5cccs5)CC4)cc3)cc2)c1 [NA42, 4-((3-ethoxybenzyl)oxy)-N-(4-(4-(thiophene-2-carbonyl)piperazin-1-yl)phenyl)benzamide] | 3.6 | – | EC50 [2, 3]: 5.36 µM
O=C(Nc1ccc(N2CCN(C(=O)c3ccsc3)CC2)cc1)c1ccc(OCc2ccccc2)nc1 [NA-1] | 1.94 | – | EC50 [2, 3]: ~3.19 µM
O=C(Nc1ccc(N2CCN(C(=O)c3cccs3)CC2)cc1)c1ccc(Br)cc1 [NA-14] | ~2.62 | – | –
Cc1c(Br)ccc(C(=O)Nc2ccc(N3CCN(C(=O)c4cccs4)CC3)cc2)c1C [NA-16] | 6.46 | – | EC50 [2, 3]: 12.9 µM
O=C(Nc1ccc(N2CCN(C(=O)c3cccs3)CC2)cc1)c1sc2cc(Cl)ccc2c1Cl [NA-20] | 1.94 | – | EC50 [2, 3]: ~4.75 µM
O=C(Nc1ccc(N2CCN(C(=O)c3cccs3)CC2)cc1)c1cccc2c(Br)cccc12 [NA-21, 5-bromo-N-{4-[4-(2-thienylcarbonyl)-1-piperazinyl]phenyl}-1-naphthamide] | 0.73 | – | EC50 [2, 3]: 1.05 µM
O=C(Nc1ccc(N2CCN(C(=O)c3cccs3)CC2)cc1)c1ccc(OCc2ccc(F)c(F)c2F)cc1 [NA-23] | 1.71 | – | EC50 [2, 3]: ~2.53 µM
COc1cccc(COc2ccc(C(=O)Nc3ccc(N4CCN(C(=O)c5cccs5)CC4)cc3)cc2)c1 [NA-24, 4-((3-methoxybenzyl)oxy)-N-(4-(4-(thiophene-2-carbonyl)piperazin-1-yl)phenyl)benzamide] | 3.14 | – | –
Cc1ccc(COc2ccc(C(=O)Nc3ccc(N4CCN(C(=O)c5cccs5)CC4)cc3)cc2)cc1 [NA-25] | 3.29 | – | EC50 [2, 3]: 8.15 µM
CCOc1ccc(C(=O)Nc2ccc(N3CCN(C(=O)c4cccs4)CC3)cc2)cc1Br [NA-30] | 2.68 | – | –
O=C(Nc1ccc(N2CCN(C(=O)c3cccs3)CC2)cc1)c1ccc(-c2cc3ccccc3oc2=O)cc1 [NA-32] | 1.43 | – | –
O=C(Nc1ccc(N2CCN(C(=O)c3cccs3)CC2)cc1)c1ccc(OCc2cccc(Cl)c2)cc1 [NA-33] | 1.84 | – | EC50 [2, 3]: 3.81 µM
O=C(Nc1ccc(N2CCN(C(=O)c3cccs3)CC2)cc1)c1ccc(-c2ccncc2)cc1 [NA-38] | ~11.2 | – | –
O=C(Nc1ccc(N2CCN(C(=O)c3cccs3)CC2)cc1)c1ccc(-c2ccccc2)cn1 [NA-39] | 7.02 | – | –
O=C(Nc1ccc(N2CCN(C(=O)c3cccs3)CC2)cc1)c1ccc(-c2ccccc2)nc1 [NA-41] | 10.7 | – | –
CCOc1cccc(COc2ccc(C(=O)Nc3ccc(N4CCN(C(=O)c5cccs5)CC4)cc3)cc2)c1 [NA-42, 4-((3-ethoxybenzyl)oxy)-N-(4-(4-(thiophene-2-carbonyl)piperazin-1-yl)phenyl)benzamide] | – | – | IRF3 and NF-κB reporter activity ([1]; 8-point dose response): high IRF3 activity and low off-target NF-κB activation
COc1ccc(C(=O)Nc2ccc(OCc3ccccc3)cc2)cc1[N+](=O)[O-] [NA-44] | 4.45 | – | EC50 [2, 3]: 7.65 µM
O=C(Nc1ccc(N2CCN(C(=O)c3cccs3)CC2)cc1)c1ccc(OCc2ccccc2)nc1 [NA-59] | ~2.53 | – | EC50 [2, 3]: 4.37 µM
Cc1ccc(NC(=O)c2cc(NC(=O)c3ccccc3)ccc2N2CCOCC2)cc1Cl [NB-1] | – | 2.53 | EC50 [2, 5]: 19.9 µM

SMILES | EC50 [1, 4] [µM] | EC50 [1, 6] [µM] | other results
Cc1ccc(NC(=O)c2cc(NC(=O)Cc3ccccc3)ccc2N2CCOCC2)cc1Cl [NB-3] | – | ~1.57 | –
Cc1ccc(NC(=O)c2cc(NC(=O)c3cccs3)ccc2N2CCOCC2)cc1Cl [NB-8] | – | 4.7 | –
Cc1ccc(NC(=O)c2cc(NC(=O)c3cccs3)ccc2N2CCOCC2)cc1 [NB-17] | – | 6.07 | EC50 [2, 5]: 8.79 µM
O=C(Nc1ccc(N2CCOCC2)c(C(=O)Nc2ccc(OCc3ccccc3)cc2)c1)c1cccs1 [NB-18] | – | 2.23 | –
Cc1ccc(NC(=O)c2cc(NC(=O)c3cccs3)ccc2N2CCOCC2)cc1Br [NB-23] | – | 3.27 | EC50 [2, 5]: 9.53 µM
Cc1cc(NC(=O)c2sc3cc(Cl)ccc3c2Cl)ccc1NC(=O)c1ccco1 [NC-2] | 7.98 | – | –
COc1ccc(C(=O)Nc2cc(-c3nc4cc(C)c(C)cc4o3)ccc2C)cc1[N+](=O)[O-] [ND13, N-(5-(5,6-dimethylbenzo[d]oxazol-2-yl)-2-methylphenyl)-4-methoxy-3-nitrobenzamide] | – | 0.975 | EC50 [2, 5]: 1.32 µM
COc1ccc(C(=O)Nc2cc(-c3nc4ccccc4s3)ccc2C)cc1[N+](=O)[O-] [ND52, N-[5-(1,3-benzothiazol-2-yl)-2-methylphenyl]-4-methoxy-3-nitrobenzamide] | – | 3.89 | EC50 [2, 5]: 7.53 µM
COc1ccc(C(=O)Nc2nc(-c3cc4ccccc4oc3=O)cs2)cc1 [ND-1] | – | ~12.4 | EC50 [2, 5]: 8.75 µM
COc1ccc(C(=O)Nc2cc(-c3nc4cc(C(C)C)ccc4o3)ccc2C)cc1[N+](=O)[O-] [ND-2] | – | 1.12 | EC50 [2, 5]: 11.4 µM
CC(C)CC(=O)Nc1ccc2oc(-c3cccc(I)c3)nc2c1 [ND-5] | – | 14.7 | –
O=C(Cc1ccc(Cl)cc1)Nc1cccc(-c2nnc(-c3ccco3)o2)c1 [ND-7] | – | 8.42 | EC50 [2, 5]: 30.6 µM
COc1ccc(C(=O)Nc2cc(-c3nc4cc(C)c(C)cc4o3)ccc2C)cc1[N+](=O)[O-] [ND-13, N-(5-(5,6-dimethylbenzo[d]oxazol-2-yl)-2-methylphenyl)-4-methoxy-3-nitrobenzamide] | – | – | IRF3 and NF-κB reporter activity ([1]; 8-point dose response): high IRF3 activity and low off-target NF-κB activation
COc1ccc(-c2nc3cc(C(C)C)ccc3o2)cc1NC(=O)c1ccc(C)c([N+](=O)[O-])c1 [ND-16] | – | 3.12 | EC50 [2, 5]: 6.75 µM
COc1ccc(C(=O)Nc2cc(-c3nc4ccccc4s3)ccc2C)cc1[N+](=O)[O-] [ND-38] | – | – | EC50 ([2]; Mouse Reporter Cell Line J774): 12 µM; EC50 ([1]; Human Reporter Cell Line THP1): 4.29 µM
COc1ccc(C(=O)Nc2cccc(-c3nc4ncccc4o3)c2)cc1Br [ND-47] | – | 10.6 | EC50 [2, 5]: 9.71 µM
Cc1ccc(-c2nc3ccccc3s2)cc1NC(=O)c1cccc(Cl)c1 [ND-80] | – | 6.16 | –
ClCCCOc1ccc(-c2nc3cc(OCCCN4CCCC4)ccc3o2)cc1 [ND-94] | – | 32.1 | –
COCOc1ccc2oc(-c3ccc(C)c(NC(=O)c4ccc(OC)c([N+](=O)[O-])c4)c3)nc2c1 [ND-95, 4-methoxy-N-(5-(5-(methoxymethoxy)benzo[d]oxazol-2-yl)-2-methylphenyl)-3-nitrobenzamide] | – | 0.59 | EC50 [2, 5]: 3.01 µM
COCOc1ccc2oc(-c3ccc(C)c([N+](=O)[O-])c3)nc2c1 [ND-96] | – | ~4.1 | –
